Target: T1, human IDO1 (Homo sapiens, UniProt P14902)
T1 construct: expressed in transfected cells
Test: HEK293 human IDO1 cell-based IDO inhibition assay
Settings: read-out: HEK Human IDO-1 Potency
Protocol: 1HEK293 cells were transfected with a pCDNA-based mammalian expression vector harboring human IDO1 cDNA (NM 002164.2) by electroporation. They were cultured in medium (DMEM with 10% FBS) containing 1 mg/ml G418 for two weeks. Clones of HEK293 cells that stably expressed human IDO1 protein were selected and expanded for IDO inhibition assay.
The human IDOL/HEK293 cells were seeded at 10,000 cells per 50 μL per well with RPMI/phenol red free media contains 10% FBS in a 384-well black wall clear bottom tissue culture plate (Matrix Technologies LLC) 100 nL of certain concentration of compound was then added to each well using ECHO liquid handling systems. The cells were incubated for 20 hours in 37° C. incubator with 5% CO2.
The compound treatments were stopped by adding Trichloroacetic Acid (Sigma-Aldrich) to a final concentration at 0.2%. The cell plate was further incubated at 50° C. for 30 minute. The equal volume supernatant (20 μL) and 0.2% (w/v) Ehrlich reagent (4-dimethylaminobenzaldehyde, Sigma-Aldrich) in glacial acetic acid were mixed in a new clear bottom 384-well plate. This plate was then incubated at room temperature for 30 minute. The absorbance at 490 nm was measured on Envision plate reader.

T1 sequence (P14902 whole entry): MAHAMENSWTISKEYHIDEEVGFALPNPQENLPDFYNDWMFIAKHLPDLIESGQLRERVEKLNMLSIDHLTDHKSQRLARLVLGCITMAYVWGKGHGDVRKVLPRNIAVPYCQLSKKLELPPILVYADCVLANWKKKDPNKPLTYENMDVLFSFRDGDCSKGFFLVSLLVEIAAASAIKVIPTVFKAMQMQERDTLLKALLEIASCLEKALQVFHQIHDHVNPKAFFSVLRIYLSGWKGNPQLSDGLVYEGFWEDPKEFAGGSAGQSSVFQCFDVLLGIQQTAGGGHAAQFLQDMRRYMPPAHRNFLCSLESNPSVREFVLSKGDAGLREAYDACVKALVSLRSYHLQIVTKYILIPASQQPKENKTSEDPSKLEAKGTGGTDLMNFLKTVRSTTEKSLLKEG

Q: How did the IC50 turn out when `Cc1cc(F)ccc1NC(=O)[C@H](C)[C@H]1CC[C@@H](c2ccnc3ccc(F)cc32)CC1` [Example 59, (R)-N-(4-fluoro-2-methylphenyl)-2-((cis)-4-(6-fluoroquinolin-4-yl)cyclohexyl)propanamide] was run?
A: The IC50 was over 250 nM.

Q: With `C[C@@H](C(=O)Nc1ccc(C(F)(F)F)cc1)[C@H]1CC[C@@H](c2ccnc3ccc(F)cc32)CC1` [Example 60, (R)-2-((cis)-4-(6-fluoroquinolin-4-yl)cyclohexyl)-N-(4-(trifluoromethyl)phenyl)propanamide] as the molecule, how does the IC50 read?
A: The IC50 was under 50 nM.

Q: How did the IC50 turn out when `C[C@@H](C(=O)Nc1ccc2c(c1)OC(F)(F)O2)[C@H]1CC[C@@H](c2ccnc3ccc(F)cc32)CC1` [Example 61, (R)-N-(2,2-difluorobenzo[d][1,3]dioxol-5-yl)-2-((cis)-4-(6-fluoroquinolin-4-yl)cyclohexyl)propanamide] was run?
A: Its IC50 is under 50 nM.

Q: With `CCOc1ccccc1NC(=O)[C@H](C)[C@H]1CC[C@@H](c2ccnc3ccc(F)cc32)CC1` [Example 62, (R)-N-(2-ethoxyphenyl)-2-((cis)-4-(6-fluoroquinolin-4-yl)cyclohexyl)propanamide] as the molecule, how does the IC50 read?
A: The IC50 was under 250 nM.

Q: How did the IC50 turn out when `Cc1cc(Cl)ccc1NC(=O)[C@H](C)[C@H]1CC[C@@H](c2ccnc3ccc(F)cc32)CC1` [Example 64, (R)-N-(4-chloro-2-methylphenyl)-2-((cis)-4-(6-fluoroquinolin-4-yl)cyclohexyl)propanamide] was run?
A: Its IC50 is under 250 nM.

Q: With `C[C@@H](C(=O)Nc1cccc(Cl)c1)[C@H]1CC[C@@H](c2ccnc3ccc(F)cc32)CC1` [Example 65, (R)-N-(3-chloropehnyl)-2-((cis)-4-(6-fluoroqinolin-4-yl)cyclohexyl)propanamide] as the molecule, how does the IC50 read?
A: Its IC50 is under 50 nM.

Q: With `C[C@@H](C(=O)Nc1ccc(Cl)c(Cl)c1)[C@H]1CC[C@@H](c2ccnc3ccc(F)cc32)CC1` [Example 66, (R)-N-(3,4-dichlorophenyl)-2-((cis)-4-(6-fluoroquinolin-4-yl)cyclohexyl)propanamide] as the molecule, how does the IC50 read?
A: The IC50 was under 50 nM.

Q: `COC(=O)c1cccc(NC(=O)[C@H](C)[C@H]2CC[C@@H](c3ccnc4ccc(F)cc43)CC2)c1` [Example 67, methyl 3-((R)-2-((cis)-4-(6-fluoroquinolin-4-yl)cyclohexyl)propanamido)benzoate] was tested. Which IC50 did it give?
A: Its IC50 is under 50 nM.

Q: How did the IC50 turn out when `COC(=O)c1ccc(NC(=O)[C@H](C)[C@H]2CC[C@@H](c3ccnc4ccc(F)cc43)CC2)cc1` [Example 68, methyl 4-((R)-2-((cis)-4-(6-fluoroquinolin-4-yl)cyclohexyl)propanamido)benzoate] was run?
A: The IC50 was under 50 nM.

Q: With `C[C@@H](C(=O)N(C)c1ccccc1)[C@H]1CC[C@@H](c2ccnc3ccc(F)cc32)CC1` [Example 69, (R)-2-((cis)-4-(6-fluoroquinolin-4-yl)cyclohexyl)-N-methyl-N-phenylpropanamide] as the molecule, how does the IC50 read?
A: The IC50 was over 250 nM.

Q: For `C[C@@H](C(=O)Nc1cccc(C(F)(F)F)c1)[C@H]1CC[C@@H](c2ccnc3ccc(F)cc32)CC1` [Example 70, (R)-2-((cis)-4-(6-fluoroquinolin-4-yl)cyclohexyl)-N-(3-(trifluoromethyl)phenyl)propanamide], which IC50 is on record?
A: The IC50 was under 50 nM.

Q: For `C[C@@H](C(=O)Nc1ccc(Oc2ccccc2)cc1)[C@H]1CC[C@@H](c2ccnc3ccc(F)cc32)CC1` [Example 71, (R)-2-((cis)-4-(6-fluoroquinolin-4-yl)cyclohexyl)-N-(4-phenoxyphenyl)propanamide], which IC50 is on record?
A: Its IC50 is under 50 nM.

Q: `Cc1cccc(NC(=O)[C@H](C)[C@H]2CC[C@@H](c3ccnc4ccc(F)cc43)CC2)c1` [Example 72, (R)-2-((cis)-4-(6-fluoroquinolin-4-yl)cyclohexyl)-N-(m-tolyl)propanamide] was tested. Which IC50 did it give?
A: The IC50 was under 50 nM.

Q: How did the IC50 turn out when `C[C@@H](C(=O)Nc1cccc(Oc2ccccc2)c1)[C@H]1CC[C@@H](c2ccnc3ccc(F)cc32)CC1` [Example 73, (R)-2-((cis)-4-(6-fluoroquinolin-4-yl)cyclohexyl)-N-(3-phenoxyphenyl)propanamide] was run?
A: The IC50 was under 250 nM.

Q: Which IC50 does the source give for `C[C@@H](C(=O)Nc1ccccc1Oc1ccccc1)[C@H]1CC[C@@H](c2ccnc3ccc(F)cc32)CC1` [Example 73a, (R)-2-((cis)-4-(6-fluoroquinolin-4-yl)cyclohexyl)-N-(2-phenoxyphenyl)propanamide] here?
A: Its IC50 is over 250 nM.

Q: Which IC50 does the source give for `C[C@@H](C(=O)Nc1ccncc1)[C@H]1CC[C@@H](c2ccnc3ccc(F)cc32)CC1` [Example 74, (R)-2-((cis)-4-(6-fluoroquinolin-4-yl)cyclohexyl)-N-(pyridin-4-yl)propanamide] here?
A: Its IC50 is under 50 nM.

Q: How did the IC50 turn out when `C[C@@H](C(=O)Nc1nccs1)[C@H]1CC[C@@H](c2ccnc3ccc(F)cc32)CC1` [Example 75, (R)-2-((cis)-4-(6-fluoroquinolin-4-yl)cyclohexyl)-N-(thiazol-2-yl)propanamide] was run?
A: Its IC50 is under 250 nM.

Q: For `C[C@@H](C(=O)Nc1cccnc1)[C@H]1CC[C@@H](c2ccnc3ccc(F)cc32)CC1` [Example 76, (R)-2-((cis)-4-(6-fluoroquinolin-4-yl)cyclohexyl)-N-(pyridin-3-yl)propanamide], which IC50 is on record?
A: Its IC50 is under 50 nM.

Q: How did the IC50 turn out when `C[C@@H](C(=O)Nc1ccccc1F)[C@H]1CC[C@@H](c2ccnc3ccc(F)cc32)CC1` [Example 77, (R)-N-(2-fluorophenyl)-2-((cis)-4-(6-fluoroquinolin-4-yl)cyclohexyl)propanamide] was run?
A: The IC50 was under 50 nM.

Q: `CCOc1ccc(NC(=O)[C@H](C)[C@H]2CC[C@@H](c3ccnc4ccc(F)cc43)CC2)cc1` [Example 78, (R)-N-(4-ethoxyphenyl)-2-((cis)-4-(6-fluoroquinolin-4-yl)cyclohexyl)propanamide] was tested. Which IC50 did it give?
A: The IC50 was under 50 nM.

Q: For `C[C@@H](C(=O)Nc1cccc(C#N)c1)[C@H]1CC[C@@H](c2ccnc3ccc(F)cc32)CC1` [Example 79, (R)-N-(3-cyanophenyl)-2-((cis)-4-(6-fluoroquinolin-4-yl)cyclohexyl)propanamide], which IC50 is on record?
A: The IC50 was under 250 nM.

Q: `Cc1ccc(NC(=O)[C@H](C)[C@H]2CC[C@@H](c3ccnc4ccc(F)cc43)CC2)cc1Cl` [Example 80, (R)-N-(3-chloro-4-methylphenyl)-2-((cis)-4-(6-fluoroquinolin-4-yl)cyclohexyl)propanamide] was tested. Which IC50 did it give?
A: The IC50 was under 50 nM.

Q: With `C[C@@H](C(=O)Nc1ccc(C(F)(F)F)c(C#N)c1)[C@H]1CC[C@@H](c2ccnc3ccc(F)cc32)CC1` [Example 82, (R)—N-(3-Cyano-4-(trifluoromethyl)phenyl)-2-((cis)-4-(6-fluoroquinolin-4-yl)cyclohexyl)propanamide] as the molecule, how does the IC50 read?
A: The IC50 was under 250 nM.

Q: How did the IC50 turn out when `CCC(C(=O)Nc1ccc(Cl)cc1)[C@H]1CC[C@H](Oc2ccnc3c(C(F)(F)F)cccc23)CC1` (stereo partly drawn) [Example 86, N-(4-Chlorophenyl)-2-((trans)-4-((8-(trifluoromethyl)quinolin-4-yl)oxy)cyclohexyl)butanamide] was run?
A: Its IC50 is under 50 nM.

Q: With `O=C(CN1CCC(Oc2ccc3nccc(Cl)c3c2)CC1)Nc1ccc(Cl)cc1` [Example 90, N-(4-Chlorophenyl)-2-(4-((4-chloroquinolin-6-yl)oxy)piperidin-1-yl)acetamide] as the molecule, how does the IC50 read?
A: The IC50 was over 250 nM.

Q: `O=C(CN1CCC(Oc2ccnc3ccc(F)cc23)CC1)Nc1ccc(Cl)cc1` [Example 95, N-(4-Chlorophenyl)-2-(4-((6-fluoroquinolin-4-yl)oxy)piperidin-1-yl)acetamide] was tested. Which IC50 did it give?
A: The IC50 was under 250 nM.

Q: With `O=C(CC1CCN(Cc2ccnc3ccccc23)CC1)Nc1ccc(Cl)cc1` [Example 113, N-(4-Chlorophenyl)-2-(1-(quinolin-4-ylmethyl)piperidin-4-yl)acetamide] as the molecule, how does the IC50 read?
A: Its IC50 is under 50 nM.

Q: With `O=C(CC1CCN(Cc2ccnc3ccccc23)CC1)Nc1ccc(F)cc1` [Example 114, N-(4-Fluorophenyl)-2-(1-(quinolin-4-ylmethyl)piperidin-4-yl)acetamide] as the molecule, how does the IC50 read?
A: Its IC50 is under 250 nM.

Q: Which IC50 does the source give for `O=C(CC1CCN(c2ccnc3ccc(F)cc23)CC1)Nc1ccc(F)cc1` [Example 115, N-(4-Fluorophenyl)-2-(1-(6-fluoroquinolin-4-yl)piperidin-4-yl)acetamide] here?
A: The IC50 was over 250 nM.

Q: Which IC50 does the source give for `O=C(CC1CCN(c2ccnc3ccc(F)cc23)CC1)Nc1ccc(Cl)cc1` [Example 116] here?
A: Its IC50 is over 250 nM.

Q: How did the IC50 turn out when `O=C(CC1CCN(c2ccnc3ccc(F)cc23)CC1)Nc1ccc(Br)cc1` [Example 117] was run?
A: The IC50 was over 250 nM.

Q: How did the IC50 turn out when `Cc1ccc(NC(=O)CC2CCN(c3ccnc4ccc(F)cc34)CC2)c(F)c1` [Example 118] was run?
A: The IC50 was over 250 nM.

Q: With `Cc1cc(Cl)ccc1NC(=O)CC1CCN(c2ccnc3ccc(F)cc23)CC1` [Example 119] as the molecule, how does the IC50 read?
A: The IC50 was over 250 nM.

Q: For `CC1(CC(=O)Nc2ccc(F)cc2)CCN(c2ccnc3ccc(F)cc23)CC1` [Example 120, N-(4-Fluorophenyl)-2-(1-(6-fluoroquinolin-4-yl)-4-methylpiperidin-4-yl)acetamide], which IC50 is on record?
A: Its IC50 is over 250 nM.

Q: `Cc1ccc(NC(=O)CC2(C)CCN(c3ccnc4ccc(F)cc34)CC2)cc1` [Example 121] was tested. Which IC50 did it give?
A: The IC50 was over 250 nM.

Q: With `CC1(CC(=O)Nc2cncnc2)CCN(c2ccnc3ccc(F)cc23)CC1` [Example 122] as the molecule, how does the IC50 read?
A: The IC50 was over 250 nM.

Q: With `CC1(CC(=O)Nc2ccc(Cl)cc2)CCN(c2ccnc3ccc(F)cc23)CC1` [Example 123] as the molecule, how does the IC50 read?
A: The IC50 was under 50 nM.

Q: How did the IC50 turn out when `COc1ncc(NC(=O)CC2(C)CCN(c3ccnc4ccc(F)cc34)CC2)cn1` [Example 124] was run?
A: The IC50 was over 250 nM.

Q: For `CCOc1ccc(NC(=O)CC2(C)CCN(c3ccnc4ccc(F)cc34)CC2)cc1` [Example 125], which IC50 is on record?
A: The IC50 was under 250 nM.

Q: For `CC(C(=O)O)c1ccc(C[C@@H](C(=O)Nc2ccc(C#N)cc2)[C@H]2CC[C@@H](c3ccnc4ccc(F)cc43)CC2)cc1` (stereo partly drawn) [Example 140, 2-(4-((R)-3-((4-Cyanophenyl)amino)-2-((cis)-4-(6-fluoroquinolin-4-yl)cyclohexyl)-3-oxopropyl)phenyl)propanoic Acid], which IC50 is on record?
A: Its IC50 is under 50 nM.

Reference: US20180282281A1, “IMMUNOREGULATORY AGENTS” (FLEXUS BIOSCIENCES, INC., priority 2014, published 2018)
